# Earlier results, collected in patent publication EP0972007B1, “DETERGENT COMPOSITIONS” (UNILEVER PLC, priority 1997, dated 1998).
# Details: for Water Solubility (g/100g): grams of solid to form a saturated solution in 100 grams of water at 20°C
Structure (SMILES),Water Solubility (g/100g),solubility in water (at 20°C)
O=BO[O-].[Na+] [Sodium perborate anhydrous],3.7,
O=P(O)(O)OP(=O)(O)OP(=O)(O)O [Sodium tripolyphosphate anhydrous],15,
NC(N)=O [Urea],>100,exceeding 100 gms per 100ml water
